# According to patent US9804152B1, “Human ex vivo skin model and its use in methods of identifying modulators of skin inflammation” (The Procter & Gamble Company, priority 2012, dated 2017):
# Key:
# Format in all cases: cell-based
# [1] = test system: endogenously inflamed ex vivo human skin sample; test: Inhibitors of endogenous inflammation: IL-8/IL-6 secretion by ex vivo skin samples; conditions: for inhibition of endogenous inflammation, conclusion in words: IL-8 as marker; for IL-8 expression (secretion): untreated (endogenous) skin sample; for IL-8 expression (secretion) / IL-8 secretion: day 3; for fold-regulation in secretion (expression) of IL-6 / fold-regulation in secretion (expression) of IL-8: endogenously inflamed skin; for IL-8 expression: not induced, untreated 1045 pg/ml; for IL-8 secretion: endogenously inflamed skin sample, without inhibitor about 2,600 pg/ml
# Excerpt: (§1) This Example describes the materials and methods used in preparing ex vivo skin samples for use according to the methods disclosed herein. Materials used in preparation of ex vivo skin samples for use in the disclosed screening methods included: Dulbecco's Modified Eagle Medium (DMEM) plus Glutamax, antibiotic and antimycotics, 1× phosphate-buffered saline (PBS), 150×15 mm sterile culture dishes, sterile gauze 4×4, disposable safety scalpels, 4 mm disposable biopsy punch, 6-well cell-culture inserts, disinfected tweezers, cotton-tipped applicators, 6-well culture plates, ruled, disinfected cutting mat (12×12), scraper handle, tissue freezing medium, biopsy cassettes, frozen-tissue freezing vessels, 10% formalin, shipping containers for fixed tissue, and biohazard/sharps containers. Media was prepared in advance of the arrival of ex vivo skin. The skin arrived with the dermis (fat) side down on sterile DMEM soaked gauze in a sterile culture dish. The culture dish was taped shut and in a biohazard zip-lock baggie on an ice pack in a secondary container.
# (§2) On arrival, the skin was removed from the bag and soaked in 3×DMEM media (3× refers to concentration of antibiotic and antimycotics) and stored at 4° C. for 1 hour. After 1 hour, the skin was removed from the 3×DMEM and rinsed with sterile 1×PBS. The skin was placed in a clean culture dish containing gauze soaked with 1×DMEM. The sample was put in culture the same day as arrival. If necessary, however, the ex vivo skin samples can be stored at 4° C. overnight.
# (§3) In preparation for culture, the following was performed: on a cutting mat, the skin was flipped over so that the epidermis was down and the subcutis (fat) was exposed. The fat was removed with a disposable scalpel by carefully grasping one corner of the skin with sterile serrated forceps and scraping the fat away with the blade held at a 45° angle to the skin. After the fat was removed, the surgical edges were cut off with a scalpel using a scraper as a straight edge guide and to hold the skin in place. Using the scraper as a guide, the skin was cut into 1.25 cm (2×2 squares on grid) wide strips using a ruler to measure the width. The strip was rinsed in a 100 mm culture dish containing 1×PBS. The strips were cut into 1.25 cm^2 squares and placed in a 100 mm culture dish on 1×DMEM-soaked gauze until they were put into culture 30 minutes later.
# (§4) Culture plates were prepared that included 2.5 ml of media or media with treatment (e.g., a candidate modulator, an inflammation inducer, and/or an inhibitor of inflammation) in each well of a 6-well plate. One Millicell culture insert was added to each well and 100 μl of 1× DMEM was put in the center of each insert membrane. Squares of skin tissue were selected randomly and placed into each of the inserts (one piece of skin per insert), on top of the media on the membrane. The plates were stored at 33° C., with fresh media changes daily. As a control, baseline tissue measurements were collected from excess waste (cryogenics were used for snap-freezing). Baseline biopsy collection included two 4 mm punches for an MTT colorimetric assay (described below); one 4 mm punch was snap-frozen in OCT tissue compound for fresh histology; one 4 mm punch was fixed in 10% formalin and sent out for paraffin embedding. Expression measurements of inflammation marker genes were performed using PCR and primers appropriate to the known sequence of the gene(s) of interest.
# (§5) Culturing and treatment of the ex vivo skin model comprised replicates of n=5. Before experimental treatment, compounds (e.g., a candidate modulator, an inflammation inducer, or a suppressor of inflammation) were solubilized in appropriate solvents (including PBS, media, alcohol, and DMSO). Appropriate dilutions were made for treatment and 15 ml of media was used per plate per day for treatment, with 2.5 ml of media per well under the cell culture insert. Media was pre-warmed and changed every day during the experiment.
# [2] = test system: induced inflamed ex vivo human skin sample (IL-17 + IL-22); test: Inhibitors of IL-17/IL-22-induced inflammation: IL-8 secretion by ex vivo skin samples; conditions: for IL-8 expression (secretion): IL-17/IL-22-induced inflammation, day 3, induced alone about 3,800 pg/ml; for inhibition of IL-17/IL-22 induced inflammation, conclusion in words: IL-8 as marker; for IL-8 expression: induced by IL-17 (200 ng/ml)/IL-22 (20 ng/ml), day 4, induced alone 1798 pg/ml
# [3] = test system: ex vivo human skin sample; test: Inducers of inflammation: inflammation marker secreted into the media by ex vivo skin samples (ELISA); conditions: IL-1β 10 ng/ml on first four days of eight-day experiment
# Excerpt: as §1, §2
# In preparation for culture, the following was performed: on a cutting mat, the skin was flipped over so that the epidermis was down and the subcutis (fat) was exposed. The fat was removed with a disposable scalpel by carefully grasping one corner of the skin with sterile serrated forceps and scraping the fat away with the blade held at a 45° angle to the skin. After the fat was removed, the surgical edges were cut off with a scalpel using a scraper as a straight edge guide and to hold the skin in place. […]
# [4] = test system: ex vivo human skin sample; test: Inducers of inflammation: inflammation marker gene expression in ex vivo skin samples (PCR)
# Excerpt: as §1, §2, §3, §4, §5
# [5] = test system: endogenously inflamed ex vivo human skin sample; test: Inhibitors of endogenous inflammation: inflammation marker gene expression in ex vivo skin samples; conditions: 10 μM clobetasol
# Excerpt: as §1, §2, §3, §4
# as §5, with “experiment. […]” for “experiment.”
# [6] = test system: induced inflamed ex vivo human skin sample (IL-17 + IL-22); test: Inhibitors of IL-17/IL-22-induced inflammation: inflammation marker gene expression in ex vivo skin samples
# Excerpt: as §1, §2, §3, §4
# as §5, with “experiment. […]” for “experiment.”
# [7] = endogenously inflamed, 0.6 nM betamethasone, 0.08 μM hydrocortisone, 30 μM ketoprofen, 35 μM arlatone
compound,measurement,setting,value
zinc pyrithione [ZPT],"inhibition of endogenous inflammation, conclusion in words",[1],did not significantly inhibit endogenous inflammation
same,IL-8 expression (secretion),"[1]; topical 0.4 μg/cm^2 zinc pyrithione, without inhibitor about 1,200 pg/ml","about 2,000 pg/ml"
same,IL-8 expression (secretion),[2]; 0.4 μg/cm^2 topical ZPT,"about 2,300 pg/ml"
same,"inhibition of IL-17/IL-22 induced inflammation, conclusion in words",[2],did inhibit IL-17. IL-22 induced inflammation
IL-1β: pro-inflammatory cytokine used as inducer of inflammation,TNF-α expression (amount of biomarker present in the media),[3]; increase from about 65 pg/ml,about 120 pg/ml
same,IL-6 expression (amount of biomarker present in the media),[3]; increase from an average of about 8.2 ng/ml,≤ 12.3 ng/mL
same,"induction of inflammation in ex vivo skin samples, in words",[4],shown to induce inflammation in ex vivo skin samples
same,fold-change in IL-8 expression,"[4]; 100 pg/ml IL-1β, after 1 day",3.28 fold
same,fold-change in TNF-α expression,"[4]; 100 pg/ml IL-1β, after 1 day",−1.21 fold
same,fold-change in IL-8 expression,"[4]; 100 pg/ml IL-1β, after 2 days",2.58 fold
same,fold-change in TNF-α expression,"[4]; 100 pg/ml IL-1β, after 2 days",1.34 fold
same,fold-change in IL-8 expression,"[4]; 100 pg/ml IL-1β, after 3 days",7.88 fold
same,fold-change in TNF-α expression,"[4]; 100 pg/ml IL-1β, after 3 days",1.37 fold
same,fold-change in IL-8 expression,"[4]; 100 pg/ml IL-1β, after 4 days",5.47 fold
same,fold-change in TNF-α expression,"[4]; 100 pg/ml IL-1β, after 4 days",2.67 fold
same,fold-change in IL-8 expression,"[4]; 100 pg/ml IL-1β, after 6 days",2.42 fold
same,fold-change in TNF-α expression,"[4]; 100 pg/ml IL-1β, after 6 days",−1.29 fold
same,fold-change in IL-8 expression,"[4]; 100 pg/ml IL-1β, after 10 days",9.02 fold
same,fold-change in TNF-α expression,"[4]; 100 pg/ml IL-1β, after 10 days",1.19 fold
same,"HMGCR expression relative to untreated controls, at termination","[4]; 100 pg/ml IL-1β, end of 10-day experiment",about 0.8 fold
same,"ceramide synthase 3, increase in expression","[4]; IL-1β, both 10 pg/ml and 100 pg/ml, day 10",~1.5 fold
C[C@H]1C[C@H]2[C@@H]3CCC4=CC(=O)C=C[C@]4(C)[C@@]3(F)[C@@H](O)C[C@]2(C)[C@@]1(O)C(=O)CCl [clobetasol],fold-regulation in secretion (expression) of IL-6,"[1]; 10 μM clobetasol, donor 1 of 5",−3.28 fold
same,fold-regulation in secretion (expression) of IL-8,"[1]; 10 μM clobetasol, donor 1 of 5",−2.72 fold
same,fold-regulation in secretion (expression) of IL-6,"[1]; 10 μM clobetasol, donor 2 of 5",−3.55 fold
same,fold-regulation in secretion (expression) of IL-8,"[1]; 10 μM clobetasol, donor 2 of 5",−2.72 fold
same,fold-regulation in secretion (expression) of IL-6,"[1]; 10 μM clobetasol, donor 3 of 5",−8.69 fold
same,fold-regulation in secretion (expression) of IL-8,"[1]; 10 μM clobetasol, donor 3 of 5",−3.68 fold
same,fold-regulation in secretion (expression) of IL-6,"[1]; 10 μM clobetasol, donor 4 of 5",−5.70 fold
same,fold-regulation in secretion (expression) of IL-8,"[1]; 10 μM clobetasol, donor 4 of 5",−3.89 fold
same,fold-regulation in secretion (expression) of IL-6,"[1]; 10 μM clobetasol, donor 5 of 5",−2.20 fold
same,fold-regulation in secretion (expression) of IL-8,"[1]; 10 μM clobetasol, donor 5 of 5",−1.76 fold
same,IL-8 expression,"[1]; 10 μM clobetasol, day 4",50 pg/mL
same,IL-8 secreted into the media,"[1]; 10 μM clobetasol, otherwise untreated sample, day 4, untreated about 5,800, 0.01% DMSO about 8,000 pg/ml",about 400 pg/ml
same,"inhibition of endogenous inflammation, conclusion in words",[1],functions effectively as an inhibitor of both endogenous and induced inflammation
same,IL-8 secretion,[1]; topical 10 μM clobetasol,about 300 pg/ml
same,IL-8 expression (secretion),"[1]; topical clobetasol 1 μg/cm^2 skin surface, reduction from about 1,200 pg/ml",about 200 pg/ml
same,IL-8 expression (secretion),[2]; 1 pg/cm^2 topical clobetasol,"about 1,100 pg/cm^2"
same,IL-8 secreted into the media,"[2]; 10 μM clobetasol with 200 ng/ml IL-17 and 20 ng/ml IL-22, day 4, induced without inhibitor about 13,600 pg/ml","about 4,400 pg/ml"
same,IL-8 expression,[2]; 10 μM clobetasol,65 pg/mL
same,"inhibition of IL-17/IL-22 induced inflammation, conclusion in words",[2],functions effectively as an inhibitor of both endogenous and induced inflammation
same,"gene expression of key inflammatory markers (nine marker genes, FIG. 8), in words",[5]; endogenous inflammation,appropriately inhibits gene expression of key inflammatory markers
same,"S100A7 expression, in words",[5]; [7],inhibited S100A7 expression
same,rank ordering of inflammation inhibitors based on IL-8 and IL-6 inhibition levels,[5]; [7],most effective inhibitor
same,"reduction in the three markers (IL-6, IL-8, and TNFa), rank ordering of efficacy in words (FIG. 15)",[5]; [7],shows the greatest reduction
same,"gene expression of IL-8, IL-6, S100A7 and DEFB4, in words","[5]; topical, day 3 (72 hours), 1.2 μg/ml 1,10-phenanthroline, endogenous inflammation","inhibited expression of IL-8, IL-6 and S100A7"
same,IL-6 expression relative to control values,"[6]; 10 μM clobetasol with IL-17 (200 ng/ml) and IL-22 (20 ng/ml), induced alone about 6-fold",about 0.3 fold
same,IL-8 expression relative to the untreated control,"[6]; 10 μM clobetasol with IL-17 (200 ng/ml) and IL-22 (20 ng/ml), induced alone about 16-fold",about 3 fold
same,S100A7 expression relative to the untreated control,"[6]; 10 μM clobetasol with IL-17 (200 ng/ml) and IL-22 (20 ng/ml), induced alone about 34-fold",about 26 fold
same,DEFB4 expression relative to controls,"[6]; 10 μM clobetasol with IL-17 (200 ng/ml) and IL-22 (20 ng/ml), induced alone about 800-fold",about 200 fold
same,"gene expression of key inflammatory markers (nine marker genes, FIG. 8), in words","[6]; 10 μM clobetasol, IL-17 (200 ng/ml) + IL-22 (20 ng/ml) driven inflammation",appropriately inhibits gene expression of key inflammatory markers
same,"IL-6 expression level in the presence of the inducers and clobetasol, in words","[6]; 10 μM clobetasol, IL-17 (200 ng/ml) and IL-22 (20 ng/ml)",lower than the IL-6 expression level in untreated skin cells
same,"expression levels of IL-8, IL-6, S100A7 and DEFB4, in words","[6]; 10 μM clobetasol, inflammation induced by IL-17 (200 ng/ml) and IL-22 (20 ng/ml)",significantly reduced expression levels
O=c1cc(-c2ccc(O)cc2)oc2cc(O)cc(O)c12 [apigenin],IL-8 expression,"[1]; 25 μM apigenin, day 4",106 pg/mL
same,"inhibition of endogenous inflammation, conclusion in words",[1],functions effectively in inhibiting endogenous inflammation
same,IL-8 expression,[2]; 25 μM apigenin,1276 pg/mL
same,"inhibition of IL-17/IL-22 induced inflammation, conclusion in words",[2],does not appear to function effectively to inhibit induced inflammation
"c1cnc2c(c1)ccc1cccnc12 [1,10-phenanthroline]",IL-8 secretion,"[1]; topical 1.2 μg/ml 1,10-phenanthroline",about 900 pg/ml
S=[Se]=S [selenium sulfide],"IL-8 secretion, in words","[1]; selenium sulfide 0.04-25 μM (0.04, 0.2, 1, 5, 25 μM), endogenous inflammation, dose response",decreased secretion levels of IL-8
C[C@]12CCC(=O)C=C1CC[C@@H]1[C@@H]2[C@@H](O)C[C@@]2(C)[C@H]1CC[C@]2(O)C(=O)CO [hydrocortisone],rank ordering of inflammation inhibitors based on IL-8 and IL-6 inhibition levels,[5]; [7],"followed by betamethasone, hydrocortisone, ketoprofen and arlatone"
same,"reduction in the three markers (IL-6, IL-8, and TNFa), rank ordering of efficacy in words (FIG. 15)",[5]; [7],less robust
CC(C(=O)O)c1cccc(C(=O)c2ccccc2)c1 (centres unmarked) [ketoprofen],"CALML5 expression, in words",[5]; [7],slightly inhibiting expression
same,"FLG expression, in words",[5]; [7],slightly inhibited expression
same,rank ordering of inflammation inhibitors based on IL-8 and IL-6 inhibition levels,[5]; [7],"followed by betamethasone, hydrocortisone, ketoprofen and arlatone"
same,"reduction in the three markers (IL-6, IL-8, and TNFa), rank ordering of efficacy in words (FIG. 15)",[5]; [7],less robust
IL-17: pro-inflammatory cytokine used as inducer of inflammation,"induction of inflammation in ex vivo skin samples, in words",[4],shown to induce inflammation in ex vivo skin samples
